Experimental data: paper PMC3224021 (ACS medicinal chemistry letters, 2011)

How the values were obtained:
human GALK = human GALK (Homo sapiens, UniProt P51570); test: in vitro GALK; assay type: biochemical; conditions: for inhibitory activity against GALK (in words): in vitro GALK inhibitory assays, tested up to 50μM
human fibroblast cells = test: cell tolerance / lethality in fibroblast cells; assay type: cell-based
[1] = system: GALK in patient fibroblast cells; test: intracellular inhibition of GALK measured by reduction of gal-1P accumulation; assay type: cell-based, human; conditions: 50μM

Chain of human GALK (P51570 whole entry): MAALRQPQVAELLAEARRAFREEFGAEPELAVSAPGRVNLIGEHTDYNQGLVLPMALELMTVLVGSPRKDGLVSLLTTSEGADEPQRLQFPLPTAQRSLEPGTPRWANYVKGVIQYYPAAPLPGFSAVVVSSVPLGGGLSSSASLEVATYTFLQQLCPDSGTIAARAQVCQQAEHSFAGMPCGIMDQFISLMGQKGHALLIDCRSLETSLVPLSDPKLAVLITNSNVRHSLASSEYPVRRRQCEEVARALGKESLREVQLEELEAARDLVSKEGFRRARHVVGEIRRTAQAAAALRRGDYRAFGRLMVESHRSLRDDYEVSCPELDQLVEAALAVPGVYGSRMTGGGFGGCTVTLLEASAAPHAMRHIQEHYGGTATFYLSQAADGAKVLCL

Row | Structure (SMILES) | inhibitory activity against GALK (in words) (human GALK) | other results
1 | N#CC1=C(SCc2ccccc2)SC(c2ccccc2O)NC1=O (stereo not shown) [compound 1] |  | IC50 (human GALK): 1400 ± 700 nM
2 | N#CC1=C(SCc2ccccc2)SC(c2ccc(O)c(O)c2)NC1=O (stereo not shown) [compound 2] |  | toxicity in patient cells (human fibroblast cells; concentration not given): toxicity
3 | CSC1=C(C#N)C(=O)NC(c2ccccc2O)S1 (stereo not shown) [compound 3] | possess inhibitory activities | 
4 | N#CC1=C(SCc2ccccc2)SC(c2ccc(C(=O)O)cc2)NC1=O (stereo not shown) [compound 4] | possess inhibitory activities | 
5 | CC1NC(=O)C(C#N)=C(SCc2ccccc2)S1 (stereo not shown) [compound 5] | did not display any inhibitory activity | 
6 | CC1(C)NC(=O)C(C#N)=C(SCc2ccccc2)S1 [compound 6] | did not display any inhibitory activity | 
7 | CCCCSC1=C(C#N)C(=O)NC(c2ccccc2O)S1 (stereo not shown) [compound 7] | not all the compounds with hydroxyl groups on the A ring displayed inhibitory activity | 
8 | N#CC1=C(SCc2ccccc2)SCNC1=O [compound 8] | did not display any inhibitory activity | 
9 | N#CC1=C(SCc2ccc(O)cc2)SC2(CCC(C(=O)O)CC2)NC1=O (stereo not shown) [compound 9] | exhibited no activity | 
10 | CSC1=C(C#N)C(=O)NC(c2ccc(Cl)cc2Cl)S1 (stereo not shown) [compound 10] | inactive | 
11 | CC(=O)Oc1ccc(C2NC(=O)C(C#N)=C(SCc3ccccc3)S2)cc1OC(C)=O (stereo not shown) [compound 13] |  | cell toxicity (human fibroblast cells; 50μM or higher concentrations): total cell lethality within hours
12 | N#CC1=C(SCc2cccc(N3CCOCC3)c2)SC(c2cc(O)ccc2O)NC1=O (stereo not shown) [compound 27] |  | inhibition of GALK / lowering of gal-1P in cells (in words) [1]: neither 27 nor 29 was able to inhibit GALK or lowered gal-1P; cell tolerance (human fibroblast cells; up to 100μM): well tolerated
13 | N#CC1=C(SCc2cccc(N3CCOCC3)c2)SC(c2ccc(O)cc2)NC1=O (stereo not shown) [compound 29] |  | inhibition of GALK / lowering of gal-1P in cells (in words) [1]: neither 27 nor 29 was able to inhibit GALK or lowered gal-1P; cell tolerance / lethality (human fibroblast cells; 50μM): well-tolerated; cell lethality (human fibroblast cells; 100μM or higher): lethal to cells
